Assay results taken from US20110130449A1, “Assay for Monitoring Activity of Jmjd6” (Isis Innovation Limited, priority 2008, published 2011).
Square brackets hold non-standard residues; d marks the D form. Ends that are not written are not given here. Arg(Me2s) = CN=C(NC)NCCC[C@H](N)C(=O)O

Tests used:
[1] = molecular target: T1, Jmjd6 (Homo sapiens, UniProt Q6NYC1); test: biochemical; type: biochemical; details: for hydroxylation of peptide d, as observed by MALDI: 100 μM compound added to assay; for enhancers of Jmjd6 activity (statement): chelating agents; for rank of inhibition of Jmjd6 activity (in words) / inhibitory effect on Jmjd6 activity: 100 μM inhibitor, substrate peptide d
Method: (§1) Standard assays consisted of the substrate mixture: peptide (100 μM), 2OG (500 μM), ascorbate (100 μM) in Tris (50 mM, pH 7.5); and the enzyme mixture: FeNH4SO4 (100 μM) and Jmjd6 (10 μM) in Tris (50 mM, pH 7.5). The reaction was initiated by mixing the substrate and enzyme mixtures and incubating at 37° C. for 30-60 minutes. The reaction was quenched by adding TFA to a final concentration of 0.1% and incubating on ice. Hydroxylation of the peptide was analysed by a MALDI TOF micro MX mass spectrometer (Waters Micromass); where the assay mixture (1 μL), along with α-cyano-4-hydroxycinnamic acid MALDI (CHCA) matrix in 60% acetonitrile/0.1% TFA (1 μL), was spotted directly onto the target plate. To determine whether modification of peptide was Jmjd6-dependent assays were performed omitting either 2OG or Fe(II). To determine whether Jmjd6 was inhibited by N-oxaloylglycine (NOG), NOG (24 mM) was added to the substrate component of the assay system.
To determine the pH profile of Jmd6 standard peptide assays were performed over a pH range of 6 to 9. Buffers used were piperazine-N,N′-bis(ethanesulfonic acid) (PIPES) (pH 6.0 and 6.5), 4-(2-hydroxyethyl)-1-piperazineethanesulfonic acid (HEPES) (pH 7.0 to 8.0) and N,N-bis(2-hydroxyethyl) glycine (BICINE) (pH 8.5 and 9.0). Inhibition assays were performed under identical conditions as described for the standard assays except either succinate (1 mM) or fumarate (1 mM) were included in the substrate mixture.
A control without inhibitor was included as a reference.

[2] = molecular target: T1, Jmjd6; test: Standard assay for Jmjd6 oxygenase activity: peptide hydroxylation by MALDI-TOF MS; type: biochemical; details: for activity (hydroxylation of LUC7-like2 peptides): Table 4, standard assay conditions; for mass shift relative to un-reacted peptide: incubation with Jmjd6, oxygen, ascorbate, Fe(II), 2OG, MALDI-TOF MS
Description: All peptides tested as potential substrates of Jmjd6 were synthesised in-house by a Intavis MultiPep automated multiple synthesiser, using Tentagel amide resin (Intavis). Fluorenylmethoxycarbonyl (Fmoc)-protected amino acids were coupled with N,N′-diisopropylcarbodiimide (DIC)/1-hydroxybenzotriazole (HOBt). Cleavage of the completed peptides from the resin used CF3CO2H (TFA)/[…]. Predicted masses were confirmed by MALDI-TOF mass spectrometry. Standard assay conditions were used and are described above.
To determine whether U2AF65, CROP and LUC7-like2 were substrates of Jmjd6, multiple peptides were synthesized based on the RS domains of these proteins (FIG. 8). Initial peptides were synthesized with dimethylated arginine residues because it was speculated that Jmjd6 may be an arginine demethylase (FIG. 9). To determine whether any of these peptides were Jmjd6 substrates, incubations were carried out in the presence of oxygen, ascorbate, Fe(II) and 2OG; and peptide modifications were analyzed by MALDI-TOF MS.

[3] = system: full-length Jmjd6 (SEQ ID NO:1), Jmjd6 residues 1 to 343, Jmjd6 residues 25 to 338; details: peptide d 100 μM; FIGS. 18 and 19
Method: as §1

[4] = succinate (1 mM) or fumarate (1 mM) in substrate mixture

Which results are given for `O=C(O)c1ccc(C(=O)O)nc1` [pyridine-2,5-dicarboxylic acid]?
hydroxylation of peptide d, as observed by MALDI [1]: 100%; enhancers of Jmjd6 activity (statement) [1]: Enhancers

With 22 (NPKKSKSKEHKK) [No 22] as the molecule, how does the “activity (hydroxylation of LUC7-like2 peptides)” value [2] read?
The value was “double”.

How did the “inhibitory of Jmjd6 lysyl hydroxylase activity (statement)” value (from here on “inhibitory … (statement)”) [1] turn out when `O=c1c(-c2ccc(O)cc2)coc2cc(O)cc(O)c12` [genistein] was run?
Its value is “inhibitory”.

Which “inhibitory … (statement)” value [1] does the source give for `O=C(O)c1ccnc(C(=O)O)c1` [pyridine-2,4-dicarboxylic acid] here?
Its value is “inhibitory”.

And the “rank of inhibition of Jmjd6 activity (in words)” value (“rank of inhibition … (in words)” for short) [1]?
The value was “most potent inhibitors”.

Which “mass shift relative to un-reacted peptide” value [2] does the source give for “SHSRSRSR(Me2sym)DRKRRSRS (chain 1 SHSRSRS[Arg(Me2s)]; also: chains 1 and 2 form one continuous peptide) [No 9]” here?
The value was “+16”.

Which “activity (hydroxylation of LUC7-like2 peptides)” value [2] does the source give for 20 (NPKKSKSREHRR) [No 20] here?
Its value is “double”.

How did the “inhibitory … (statement)” value [1] turn out when `O=C(O)/C=C/C(=O)O` [fumarate] was run?
Its value is “inhibitory”.

What about the “rank of inhibition … (in words)” value [1] of the same molecule?
The value was “most potent inhibitors”.

And the “inhibition of the +16 mass shift in peptide d” value [1, 4]?
The value was “completely inhibited”.

How did the “hydroxylation of peptide d by truncated and full-length Jmjd6” value [3] turn out when NPKRSRSREHRR [No 12] was run?
The value was “hydroxylated”.

For `O=C(O)CCC(=O)O` [succinate], which “inhibitory … (statement)” value [1] is on record?
Its value is “inhibitory”.

And the “rank of inhibition … (in words)” value [1]?
The value was “most potent inhibitors”.

What about the “inhibition of the +16 mass shift in peptide d” value [1, 4] of the same molecule?
Its value is “completely inhibited”.

Which “activity (hydroxylation of LUC7-like2 peptides)” value [2] does the source give for 21 (NPKKSKSKEHRR) [No 21] here?
The value was “double”.

`O=C(O)CNC(=O)c1nc(Cl)c2ccccc2c1O` [FG2216] was tested. Which “inhibitory … (statement)” value [1] did it give?
The value was “inhibitory”.

What about the “inhibitory effect on Jmjd6 activity” value [1] of the same molecule?
The value was about 50%.

How did the “inhibitory … (statement)” value [1] turn out when `O=C(O)CNC(=O)C(=O)O` [NOG, N-oxalylglycine] was run?
Its value is “inhibitory”.

And the “inhibition of hydroxylation of peptide d, as observed by MALDI” value ([1]; 12 mM NOG in the assay mixture)?
Its value is “completely inhibited”.

What about the “inhibition of the +16 mass shift in peptide d” value ([1]; NOG 24 mM added to substrate component, FIG. 11 legend 120 mM) of the same molecule?
Its value is “completely inhibited”.

What about the inhibition at 100 µM ([1]; read-out: inhibitory effect on Jmjd6 activity) of the same molecule?
Its inhibition at 100 µM is under 20%.

How did the “mass shift relative to un-reacted peptide” value [2] turn out when “NPKRSRSR(Me2sym))EHRRHRSR (chain 1 NPKRSRS[Arg(Me2s)]; also: chains 1 and 2 form one continuous peptide) [No 1]” was run?
The value was “+16”.

With 23 (NPKRSRSKEHKK) [No 23] as the molecule, how does the “activity (hydroxylation of LUC7-like2 peptides)” value [2] read?
Its value is “yes”.

24 (NPKRSRSREHKK) [No 24] was tested. Which “activity (hydroxylation of LUC7-like2 peptides)” value [2] did it give?
Its value is “yes”.

With “SHSRSR(Me2sym)SRDRKRRSRS ({Ser-H2N-Ser-Arg-Ser-(R(Me2sym))}-SRDRKRRSRS) [No 10]” as the molecule, how does the “mass shift relative to un-reacted peptide” value [2] read?
The value was “+16”.

With `O=C(O)c1cccc(C(=O)O)n1` [pyridine-2,6-dicarboxylic acid] as the molecule, how does the “hydroxylation of peptide d, as observed by MALDI” value [1] read?
The value was 100%.

What about the “enhancers of Jmjd6 activity (statement)” value [1] of the same molecule?
Its value is “Enhancers”.

`O=C(O)c1c[nH]c2c(ccc3cccnc32)c1=O` [FG0041] was tested. Which “inhibitory … (statement)” value [1] did it give?
The value was “inhibitory”.

What about the “inhibitory effect on Jmjd6 activity” value [1] of the same molecule?
The value was about 50%.
